One data set has as its target T1, S1P3 (Homo sapiens, UniProt Q99500).
T1 construct: expressed in transfected cells
Briefly: In vitro agonistic activity on S1P3, PathHunter cell line. In kind it is cell-based. The conditions noted are these: PathHunter cells. The protocol:
Assay Example 5: In Vitro Evaluation of the Agonistic Activity of the Compound of the Present Disclosure on S1P2, S1P3 and S1P4
Object of the assay: To detect the agonistic activity of the compound on S1P2, S1P3, and S1P4
• 1. PathHunter cell line was expanded from freezer according to standard procedures. • 2. Cells were seeded into a white 384-well microplate in a total volume of 20 μL and incubated at 37° C. for an appropriate time prior to testing. II. Agonist Assay • 1. For the agonist assay, cells were incubated with a sample to induce a response. • 2. Stock solution was stored in a buffer at a concentration of 5 times the concentration to be tested. • 3. 5 μl of the stock solution sample at a concentration of 5 times the concentration to be tested was added to the cells and incubated at 37° C. or room temperature for 90-180 min with a vehicle concentration of 1%. III. Signal Detection • 1. […] Chemiluminescent Signal detection was performed using a PerkinElmer Envision™ instrument, and the microplate was read after signal generation. […] The activity of the compound was analyzed using the CBIS data analysis suite (ChemInnovation, CA). • 2. For the agonist mode assay, the percent activity was calculated using the following formula: % Activity=100%×(Mean RLU of the Assay Sample−Mean RLU of the Blank Control)/(Mean MAX Control Ligand−Mean RLU of the Blank Control).

The nature of data set [1]: Metabolite identification after incubation in human hepatocytes. To be noted: 10 μM, 37° C., 2 hours. Type of data set: in vitro ADME. The protocol:
Assay Example 4: Analysis and Identification of Metabolites of the Compound in Human Liver Microsome and Hepatocyte Incubation System
By using high-resolution mass spectrometry, the metabolite produced by the incubation of compound 32B in human liver microsomes and human hepatocytes was found, and identified for its structure; the percentage content of compound 32B and its metabolite was calculated by using LC-UV; and the possible biotransformation pathway of compound 32B in human liver microsomes and human hepatocytes in vitro was studied.
Compound 32B (10 μM) was incubated in mouse, rat, canine, monkey, and human hepatocyte systems at 37° C. for 120 min. 7-ethoxycoumarin (7-EC, 30 μM) was used as a positive control to evaluate the enzymatic metabolic activity in the hepatocyte incubation system. The incubated sample was analyzed by LC-UV-MS. The structure of each metabolite was resolved and identified based on its primary and secondary mass spectrometry signals and/or comparison with a standard. The relative percentage of the UV-integrated peak area of each metabolite was given through data collected from the sample by HPLC-UV-MS, and the possible structure of the metabolite and its possible metabolic pathway in various genera of hepatocytes were inferred from the mass spectrometry information of the metabolite.

A further data set has as its target T2, S1P1 (Homo sapiens, UniProt P21453).
T2 construct: host or cells: U2OS
Put plainly: In vitro agonistic activity on S1P1, U2OS-EDG1 cells, LiveBLAzer FRET B/G. In kind it is cell-based. The protocol: Assay Example 1: In Vitro Evaluation of the Agonistic Activity of the Compounds of the Present Disclosure on S1P1
Object of the assay: To detect the agonistic activity of compounds on S1P1
• 1. Cells U2OS-EDG1 (Batch No.: Invitrogen-K1520) were taken out of a liquid nitrogen tank and placed in a 37° C. water bath to thaw quickly; • 2. The cell suspension was aspirated into a 15 ml centrifuge tube, resuspended in 5 ml of preheated medium, and centrifuged at 1000 rpm for 5 min; • 3. The supernatant was discarded. The cells were resuspended in 10 ml of medium, transferred into a T75 culture flask, and cultivated in an incubator with 5% CO2 at 37° C. II. Agonist Assay • 1. The compounds were diluted to working concentrations, and serially diluted 3-fold by Echo 555 (manufacturer: Labcyte) to obtain 10 concentrations; 200 nL of each concentration of the compound was transferred to a cell plate and centrifuged at 1000 rpm for 15 seconds; • 2. Culture medium was aspirated from the culture flask; 4 mL of Dulbecco's phosphate buffer (DPBS, supplier: Coring, item No.: 21-031-CVR, batch No.: 03318006) was added, and the residual serum was washed away; 2 mL of trypsin was added; The mixture was incubated in an incubator at 37° C. for 2 min, and the cells were digested; 10 mL of seeding medium was added to resuspend the cells; 0.6 mL of cell suspension was taken out and counted; • 3. The density of cells was adjusted to 1.88E+05 cells/mL using seeding medium, with 40 μL per well (7500\well); 40 μL of FreeStyle™ Expression medium was added around the cell plate; The plate was let stand at room temperature for 15 min and incubated at 37° C. with 5% CO2 for 20 hours. III. Signal Detection • 1. LiveBLAzer™-FRET B/G Substrate (CCF4-AM) assay reagents were formulated according to the instructions; • 2. 8 μL of 6×Substrate Mixture was added to each well of the cell plate; The plate was centrifuged at 1000 rpm for 15 seconds, covered with a film, and incubated at 23° C. for 2 hours; The cell plate was subjected to Envision […] detection. IV. Data Analysis • 1. The raw data were converted into % Effect by using an equation, and the EC50 value can be obtained by curve fitting with four parameters [“log(agonist) vs. response—Variable slope” model in GraphPad Prism]; • 2. Calculation formula: Ratio=(460 nm−blank)/(535 nm−blank) % Effect=(SampleRatio−Ave LCRatio)/(Ave HCRatio−Ave LCRatio)×100%

Data set [2] in a line: Pharmacokinetic evaluation in SD rats (iv and oral). Type of data set: in vivo, Sprague Dawley rats. The conditions noted are these: 1 mg/kg. The procedure:
Assay Example 2: Pharmacokinetic Evaluation of Compounds in Rats
Object of the assay: To evaluate the in vivo pharmacokinetics of the compounds in SD rats
Sprague Dawley rats (male, 200-300 g, 7-9 weeks old, Shanghai SLAC)
The pharmacokinetic characteristics of the compounds in rodents after intravenous injection and oral administration were assayed according to the standard protocol. In the assay, the candidate compounds were formulated into clear solutions and administered to rats by single intravenous injection and oral administration. The vehicle for intravenous injection and oral administration was DMSO and 10% hydroxypropyl β-cyclodextrin in water (DMSO:10% hydroxypropyl β-cyclodextrin in water=5:95). Whole blood samples were collected within 48 hours, and centrifuged at 3000 g for 15 minutes. The supernatant was separated to give plasma samples. 4 times the volume of acetonitrile solution containing internal standard was added to precipitate protein. The resulting mixture was centrifuged and the supernatant was taken out. An equal volume of water was added and the mixture was centrifuged. The supernatant was taken out, and injected as a sample to quantitatively analyze the plasma drug concentration by LC-MS/MS analysis method. The pharmacokinetic parameters, such as peak concentration, time to peak, clearance rate, half-life, area under drug-time curve, bioavailability, etc., were calculated.

Molecules are shown by their SMILES. Marks after values point to notes of the source that are not given here.

Data on 1 compound can be found in patent US12479794B2, “Acetophenone oxime compound and application thereof” (Medshine Discovery Inc., priority 2020, dated 2025).

T2 sequence (P21453 whole entry): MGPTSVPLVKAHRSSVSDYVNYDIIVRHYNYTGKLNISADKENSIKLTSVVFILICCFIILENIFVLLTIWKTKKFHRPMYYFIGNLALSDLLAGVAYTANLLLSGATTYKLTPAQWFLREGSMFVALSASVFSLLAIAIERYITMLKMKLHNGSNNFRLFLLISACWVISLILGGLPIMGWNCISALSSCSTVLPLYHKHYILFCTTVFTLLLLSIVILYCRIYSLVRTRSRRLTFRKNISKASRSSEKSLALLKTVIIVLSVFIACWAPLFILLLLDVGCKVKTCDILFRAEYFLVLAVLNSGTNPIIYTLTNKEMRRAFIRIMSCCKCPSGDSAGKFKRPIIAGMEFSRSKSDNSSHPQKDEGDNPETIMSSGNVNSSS
T1 sequence (Q99500 whole entry): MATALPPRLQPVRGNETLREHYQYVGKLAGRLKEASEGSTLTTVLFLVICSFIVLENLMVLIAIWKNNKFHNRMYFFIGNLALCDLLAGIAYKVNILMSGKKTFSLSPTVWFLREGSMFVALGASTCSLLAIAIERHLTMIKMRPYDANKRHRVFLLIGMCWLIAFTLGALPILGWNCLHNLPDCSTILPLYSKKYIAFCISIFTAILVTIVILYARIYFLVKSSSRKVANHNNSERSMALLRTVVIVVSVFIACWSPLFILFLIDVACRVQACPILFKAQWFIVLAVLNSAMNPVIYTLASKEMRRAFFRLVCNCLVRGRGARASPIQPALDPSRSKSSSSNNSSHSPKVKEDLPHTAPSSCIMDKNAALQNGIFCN

What is called EC50 is the midpoint of the concentration-response curve. A high value points to a need for much substance. With `CC(=NOCc1ccc(OC(C)C)c(C(F)(F)F)c1)c1ccc2c(c1)CCC2N1CC(C(=O)O)C1` (single isomer, unassigned) [Compound 32B], the half-maximal effective concentration (EC50) at S1P3 was more than 300 nM. In data set [1], the Metabolites detected result is recorded as “no other metabolite was detected” and the “Relative abundance of the original drug” value is 100.00%. In addition, at S1P1, the EC50 turned out to be 1.15 nM. The “Emax of agonistic activity on S1P1” value at S1P1 (% Effect) is “nM, 103.4%”. In addition, the “Half life T1/2 (PO)” value in data set [2] (iv 1.0 mg/kg only (head prints PO)) is listed as 8.3 h. In data set [2] (iv 1.0 mg/kg), the “Area under drug-time curve AUC0-last iv” value is 7483* nM · hr, the “Clearance rate CL” value came out at 3.97 mL/min/kg and the “Distribution in tissue Vdss” value was determined as 2.7 L/kg.
